Assay results published in patent US20070270382A1, “Composition for Protecting Skin” (priority 2003, published 2007).

Legend:
[1] = system: skin barrier; experiment: Skin barrier function improving effect: TEWL repair after tape stripping, before and after taking sphingomyelin; format: in vivo, human; conditions: for difference in TEWL, taking vs not-taking sphingomyelin (in words): 2 and 4 days
Method: In this Example, a person's sebum film was artificially injured to increase an amount of water loss. After that, it was confirmed that there was a difference of repair degrees of water loss before and after taking sphingomyelin. It was also confirmed that how much skin wrinkles due to the water loss were improved by taking sphingomyelin. A capsule containing sphingomyelin 50 mg, phosphatidylserine 10 mg and gamma-linoleic acid 12.5 mg was used as a test material. Two capsules per one time were taken two times (morning and evening) a day. That is, four capsules were taken per a day and a medication period was three weeks. Tests were carried out for 18 males and 3 females and the testing method was as follows. An amount of water loss of skin was measured for an inner region of an arm using a TEWL meter TM210. A skin wound was induced by stripping off corneum with a tape many times and increasing a TEWL value (normally, around 6˜10) to 30 or more. In other words, after inducing an injury of a skin barrier using a tape, repair aspects of TEWL values in the injured region before and after taking sphingomyelin were compared and thus a skin barrier restoring effect of sphingomyeling was confirmed. Skin barrier function in a normal state was checked by measuring TEWL in a forearm from 21 persons. A TEWL value was increased to 30 or more after tape stripping and then TEWL was measured every other day. TEWL in a normal state was measured together with a measurement of TEWL in an injured region because TEWL in a normal state can be different according to conditions of temperature, humidity and weather, etc. Meanwhile, a same test was carried out to measure a medication effect of sphingomyelin and TEWL of skin was measured while taking sphingomyelin two times a day.

[2] = system: skin wrinkles; experiment: Skin wrinkle improving effect: wrinkles adjacent to eyes observed using a Charm View; format: in vivo, human; conditions: four persons having a weak skin barrier function; before and after taking sphingomyelin
Method: A capsule containing sphingomyelin 50 mg, phosphatidylserine 10 mg and gamma-linoleic acid 12.5 mg was used as a test material. Two capsules per one time were taken two times (morning and evening) a day. That is, four capsules were taken per a day and a medication period was three weeks. […] Four persons having a weak skin barrier function of the 21 examinees were selected and their skin states were measured before and after taking sphingomyelin.

[3] = system: hairless mice; experiment: Photoaging inhibitory effect of sphingomyelin (animal test, UV irradiation); format: in vivo

In the case of Sphingomyelin, the “difference in TEWL, taking vs not-taking sphingomyelin (in words)” value ([1]; 21 persons (Table 3)) is reported as “no significant difference”, the “difference in TEWL, taking vs not-taking sphingomyelin (in words)” value ([1]; weak skin barrier function (Table 5)) is reported as “no significant difference” and the “difference of TEWL decreases, taking vs not-taking sphingomyelin (in words)” value ([1]; 6 days, weak skin barrier function (Table 5)) is reported as “significant difference of TEWL decreases”. The “% TEWL, taking sphingomyelin” value ([1]; day 0, 21 persons, capsule with sphingomyelin 50 mg, phosphatidylserine 10 mg, gamma-linoleic acid 12.5 mg, four capsules per day) was 100 % TEWL, the “% TEWL, taking sphingomyelin” value ([1]; day 0, persons with weak skin barrier function (high TEWL in normal region)) was 100 % TEWL and the “% TEWL, taking sphingomyelin” value ([1]; day 0, six examinees with relatively high decrease rate of TEWL) was 100 % TEWL. The “% TEWL, taking sphingomyelin” value ([1]; day 2, 21 persons, oral capsules) was 43.2 ± 11.5 % TEWL, the “% TEWL, taking sphingomyelin” value ([1]; day 2, persons with weak skin barrier function) was 36.9 ± 18.9 % TEWL and the “% TEWL, taking sphingomyelin” value ([1]; day 2, six examinees with relatively high decrease rate of TEWL) was 45.7 ± 10.7 % TEWL. The “% TEWL, taking sphingomyelin” value ([1]; day 4, 21 persons, oral capsules) was 23.1 ± 8.1 % TEWL, the “% TEWL, taking sphingomyelin” value ([1]; day 4, persons with weak skin barrier function) was 19.8 ± 8 % TEWL and the “% TEWL, taking sphingomyelin” value ([1]; day 4, six examinees with relatively high decrease rate of TEWL) was 23.7 ± 7.5 % TEWL. For the same substance, the “% TEWL, taking sphingomyelin” value ([1]; day 6, 21 persons, oral capsules) was 14.8 ± 7 % TEWL, the “% TEWL, taking sphingomyelin” value ([1]; day 6, persons with weak skin barrier function) was 9.7 ± 5.8 % TEWL and the “% TEWL, taking sphingomyelin” value ([1]; day 6, six examinees with relatively high decrease rate of TEWL) was 7.4 ± 4.3 % TEWL. For the same substance, the “difference in TEWL decrease, taking vs not-taking sphingomyelin (in words)” value ([1]; six days, 21 persons (FIG. 11), paired t-test) was “significant difference in a TEWL decrease”, the “wrinkle improving effect (FIG. 14)” value [2] was “had a wrinkle improving effect” and the “state of skin (photographs, FIGS. 2 to 4)” value ([3]; UV irradiation+SM application vs UV only or UV+Vehicle, after completion of the test) was “the skin was extremely injured, compared to the case that the substrate containing sphingomyelin was applied after UV irradiation”. The “skin barrier function (FIG. 1)” value ([3]; UV irradiation+SM application, 0.5% in 1,3-butyleneglycol/distilled water/ethanol 5:3:2, UV three times per week for three months, vs UV only or UV+Vehicle) was “the skin barrier was not easily damaged and remained in a level of the early stage of the test”, the “skin barrier function (FIG. 1)” value ([3]; UV irradiation+SM oral administration) was “skin barrier protecting effect of sphingomyelin against ultraviolet was exhibited” and the “skin histological test (FIG. 5): epidermis and dermis” value ([3]; sphingomyelin applied after UV irradiation vs only UV irradiation) was “the epidermis and dermis thereof were similar to those of at the early stage of the test”.
